Assay results reported in patent publication US4473572A, “α2 -Adrenoceptor antagonistic benzoquinolizines” (John Wyeth & Brother, Limited, priority 1982, dated 1984).

What was measured:
α1-adrenoceptor = biological target: T1, α1-adrenoceptor (Rattus norvegicus, UniProt P43140); experiment: α1 antagonistic activity on the isolated anococcygeus muscle of the rat (against phenylephrine or methoxamine); settings: antagonist of phenylephrine or methoxamine, 37°, 10^-6 to 10^-4 M test drug, 30 min equilibration, read-out: pA2 (α1) (converted)
T1 construct: isolated anococcygeus muscle of the rat; from tissue; host or cells: anococcygeus muscle of male rats (250-360 g)
T1 sequence (P43140 1-466): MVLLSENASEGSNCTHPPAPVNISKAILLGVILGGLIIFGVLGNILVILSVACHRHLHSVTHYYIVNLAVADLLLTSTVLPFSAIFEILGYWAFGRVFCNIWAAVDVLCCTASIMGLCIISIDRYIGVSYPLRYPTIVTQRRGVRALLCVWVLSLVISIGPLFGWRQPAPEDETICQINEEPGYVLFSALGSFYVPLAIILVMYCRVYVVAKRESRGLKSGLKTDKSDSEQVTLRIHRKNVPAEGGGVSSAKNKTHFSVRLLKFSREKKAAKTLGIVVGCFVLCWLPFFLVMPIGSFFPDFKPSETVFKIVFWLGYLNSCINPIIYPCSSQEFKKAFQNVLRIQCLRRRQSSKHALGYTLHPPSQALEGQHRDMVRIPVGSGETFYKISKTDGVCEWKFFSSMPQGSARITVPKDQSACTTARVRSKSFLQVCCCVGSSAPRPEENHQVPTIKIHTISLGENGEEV
From the text: The α1 antagonistic activity can be evaluated by a number of different methods. One method involves assessing the activity on the isolated anococcygeus muscle of the rat. The method is based on that of Gillespie, Br.J.Pharmac., 1972, 45, 404-416. In the procedure male rats (250-360 g) are killed by a blow on the head and bled. The two anococcygeus muscles are removed from their position in the midline of the pelvic cavity, where they arise from the upper coccygeal vertebrae. The muscles are suspended in 5 ml organ baths in Krebs solution containing 10^-4 M ascorbic acid, to prevent drug oxidation. The tissues are gassed with a 95% oxygen, 5% CO2 mixture and maintained at 37°. Longitudinal muscle contractions are recorded using isotonic transducers. Cumulative dose response curves are then obtained to phenylephrine or in some cases methoxamine, both agents being […] alpha adrenoceptor agonists. The concentration range of phenylephrine or methoxamine used is 0.02 to 0.8 μg.ml^-1. The agonist is then washed from the bath and the test drug added to the bathing medium at a concentration of 10^-6 M. After 30 min. equilibration with the test drug a further agonist dose response curve is obtained. The washing, equilibration and agonists dosing procedures are then repeated using 10^-5 M and 10^-4 M solutions of the test drug. Estimates of the pA2 value for the test drug as an antagonist of phenylephrine or methoxamine were made from the agonist dose-ratios using the method of Arunlakshana & Schild, Br.J.Pharmac.Chemother., 1959, 14, 48-58.

α2-adrenoceptor = biological target: T2, α2-adrenoceptor (Rattus norvegicus, UniProt P22909); experiment: α2-adrenoceptor antagonistic activity on the rat field stimulated vas deferens preparation (against clonidine); settings: for α2/α1 selectivity: antilog of (α2 pA2 - α1 pA2); for Kb: rat field stimulated vas deferens, clonidine as agonist, 37°, 90 min after introduction of antagonist, Arunlakshana & Schild, read-out: pA2 (α2) (converted)
T2 construct: from tissue; host or cells: desheathed vas deferens of sexually mature rats
T2 sequence (P22909 1-465): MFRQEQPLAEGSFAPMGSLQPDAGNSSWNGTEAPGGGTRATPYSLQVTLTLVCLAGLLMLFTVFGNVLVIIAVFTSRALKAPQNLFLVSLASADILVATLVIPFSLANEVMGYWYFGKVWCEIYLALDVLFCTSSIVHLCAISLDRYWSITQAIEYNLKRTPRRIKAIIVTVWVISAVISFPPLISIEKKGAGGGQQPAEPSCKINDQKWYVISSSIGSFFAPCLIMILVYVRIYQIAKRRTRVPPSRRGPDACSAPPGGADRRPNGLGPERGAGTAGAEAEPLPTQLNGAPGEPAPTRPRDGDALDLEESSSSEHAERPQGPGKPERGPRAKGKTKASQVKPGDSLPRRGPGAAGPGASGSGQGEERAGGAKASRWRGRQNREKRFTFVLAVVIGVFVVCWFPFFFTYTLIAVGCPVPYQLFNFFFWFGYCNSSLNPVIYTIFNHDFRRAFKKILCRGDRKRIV
Description: The compounds of the invention were tested for their α2 -adrenoceptor antagonistic activity on the rat field stimulated vas deferens preparation using a modification of the method of Drew, Eur.J.Pharmac., 1977, 42, 123-130. The procedure is described below.
Desheathed vas deferentia from sexually mature rats were suspended in a 6 ml organ bath in Krebs solution at 37° and bubbled with 5% CO2 in oxygen. Platinum ring electrodes were positioned above and below the tissue for field stimulation, the stimulus parameters being 0.1 Hz 1 ms pulse width at supramaximal voltage. Twitch responses were recorded isotonically with a 0.5 g loading. Clonidine hydrochloride was used as the α-adrenoceptor agonist and cumulative concentration-response curves were constructed for the inhibition of twitch obtained with clonidine in the range 0.125 to 4 ng ml^-1. After washing out clonidine, the twitch response quickly recovered and an antagonist was then introduced into the Krebs reservoir. Clonidine concentration-response curves were repeated 90 min after introduction of the antagonist. The concentration of clonidine producing 50% inhibition of twitch before and after introduction of antagonist were obtained and the dose-ratio for clonidine was calculated. Various concentrations of the antagonists were used.
Chemother., 1959, 14, 48-58 and the values of pA2 and slope were calculated.

| Compound | Kb (α1-adrenoceptor) | α2/α1 selectivity (α2-adrenoceptor) | Kb (α2-adrenoceptor) |
| --- | --- | --- | --- |
| CN([C@H]1CCN2CCc3ccccc3[C@H]2C1)S(=O)(=O)CCCCl (relative stereo) [Example 4, N-Methyl-N-(1,3,4,6,8,11bα-hexahydro-2H-benzo[a]quinolizin-2β-yl)-3'-chloropropanesulphonamide] | 288 nM | 27.5 | 8.32 nM |
| CN([C@H]1CCN2CCc3ccccc3[C@H]2C1)S(=O)(=O)CC(F)(F)F (relative stereo) [Example 2, N-Methyl-N-(1,3,4,6,7,11bα-hexahydro-2H-benzo[a]quinolizin-2β-yl)-2',2',2'-trifluoroethanesulphonamide] | 1170 nM | 43 | 27.5 nM |
| CN([C@H]1CCN2CCc3ccccc3[C@H]2C1)S(=O)(=O)C(F)(F)F (relative stereo) [Example 1, N-Methyl-N-(1,3,4,6,7,11bα-hexahydro-2H-benzo[a]quinolizin-2β-yl)-trifluoromethanesulphonamide] | 3240 nM | 46 | 70.8 nM |
| CN([C@H]1CCN2CCc3ccccc3[C@H]2C1)S(=O)(=O)CCl (relative stereo) [Example 3, N-Methyl-N-(1,3,4,6,7,11bα-hexahydro-2H-benzo[a]quinolizin-2β-yl)chloromethanesulphonamide] | 245 nM | 45 | 8.91 nM |
